# Patent US20210177892A1, “PREVENTION AND TREATMENT OF INFECTIOUS DISEASE USING LOW CONCENTRATION HYPOCHLOROUS ACID SOLUTIONS” (Wonder Spray, LLC, priority 2019, published 2021)
# How the values were obtained:
# [1] = tested on: Streptococcus pneumoniae ATCC 49619; assay: Kill Time Study, Streptococcus pneumoniae; format: cell-based; conditions: FIG. 3
# Procedure: (§1) For example, FIG. 3 and FIG. 4 illustrate tables of the effect of a solution of HOCl on Streptococcus pneumoniae and Streptococcus pyogenes, respectively. The organisms in this test were prepared by inoculating the surface of about 5% Sheep blood agar plates, incubated at about 30 to 35° C. for 18 to 24 hours. Following the incubation period, the plates were washed with sterile Serological Saline Solution to harvest the microorganisms used and dilutions with Saline were made, plated on blood agar and incubated at 30 to 35° C. for 24-48 hours to determine the concentration. The inoculum level was then adjusted to […] for use as a stock suspension. Stock suspensions were well mixed and homogenized at each inoculation interval.
# (§2) Positive controls were performed at initiation and completion by spread plating to enumerate inoculum levels and verify culture purity during testing and Negative controls were performed to establish sterility of media, reagents, and materials used at initiation. Neutralizer Suitability using Modified Letheen Broth (MLB) was performed concurrently with Kill Time testing to confirm the recovery of <100 CFU of the test organism in the subculture media in the presence of product. Duplicate 10 ml containers for each treated specimen or material concentration was prepared, equilibrated to 25±2° C., and 0.1 ml of inoculum is added to each container to achieve a final concentration of 10^6 cfu/ml.
# (§3) Serial dilutions from each replicate were made at intervals of 15 second, 30 second, 1 minute and 5 minutes using 1 ml of the inoculated test product into 9 ml MLB from 1:10 to 1:1000000. Subsequently, 1 ml from each dilution was spread plated on 5% Sheep Blood agar plate in duplicate, incubated at 30 to 35° C. for 48 hours. After the incubation period, all plates were counted to determine the number of microorganisms, results are averaged and reported as log 10 reductions.
# [2] = tested on: Streptococcus pyogenes ATCC 49399; assay: Kill Time Study, Streptococcus pyogenes; format: cell-based; conditions: FIG. 4
# Procedure: as §1, §2, §3
# E. coli = conditions: 50 mM (2.6 ppm), within 5 minutes; cited from earlier work
# f2 RNA = conditions: cited from earlier work
# [3] = inhalation; cited from earlier work
compound,measurement,setting,value
"OCl [HOCl, Hypochlorous acid]",time in which bacteria that cause pneumonia are effectively killed,[1],less than 15 seconds
same,cfu/ml of Streptococcus pneumoniae after the HOCl solution was applied,[1]; after fifteen seconds,less than 10 cfu/ml
same,log 10 reduction for Streptococcus pneumoniae,[1]; after fifteen seconds,6.057 log 10
same,percent reduction for Streptococcus pneumoniae,[1]; after fifteen seconds,99.99%
same,time in which bacteria that cause strep throat are effectively killed,[2],less than 15 seconds
same,cfu/ml of Streptococcus pyogenes after the HOCl solution was applied,[2]; after fifteen seconds,less than 10 cfu/ml
same,log 10 reduction for Streptococcus pyogenes,[2]; after fifteen seconds,6.086 log 10
same,percent reduction for Streptococcus pyogenes,[2]; after fifteen seconds,99.99%
same,inhibition of DNA synthesis in E. coli,E. coli,ninety-six
same,inhibition of the growth of E. coli,E. coli,completely inhibited the growth
same,inactivation of naked f2 RNA compared with RNA in intact phage,f2 RNA,inactivated naked f2 RNA at the same rate as RNA in intact phage
same,adverse effects of inhaling the aerosolized form,[3],no adverse effects
